According to patent publication EP1701623B1, “METHODS FOR WASHING POULTRY DURING PROCESSING WITH MEDIUM CHAIN PEROXYCARBOXYLIC ACID COMPOSITIONS” (ECOLAB INC., priority 2004, dated 2005):

Key:
Bacterial Spores = test: Antimicrobial activity against bacterial spores versus conventional compositions; type: cell-based; details: 0.5 min, pH 3.32, 35%
Procedure: (§1) Antimicrobial activity was determined according to two well established methods. The first method was the procedure set out in Germicidal and Detergent Sanitizing Action of Disinfectants, Official Methods of Analysis of the Association of Official Analytical Chemists, paragraph 960.09 and applicable sections, 15th Edition, 1990 (EPA Guideline 91-2). The second method was the procedure described in A.O.A.C. Use Dilution Methods, Official Methods of Analysis of the Association of Official Analytical Chemists, paragraph 955.14 and applicable sections, 15th Edition, 1990 (EPA Guideline 91-2). Briefly, antimicrobial activity of the present compositions was determined by exposing a one mL aliquot containing the target microorganism to 99 mL of the desired concentration of the test substance at the desired temperature. After the specified contact time, one mL of the test solution containing the microorganism was neutralized and enumerated for survivors.

S. aureus = test: Antimicrobial activity, AOAC sanitizing/use dilution suspension test; type: cell-based; details: Staphylococcus aureus
Procedure: as §1

SMILES | log reduction at 35 % (Bacterial Spores; 40 °C, 30 sec) | log reduction at 35 % (Bacterial Spores; 40 °C, 60 sec) | log reduction at 35 % (Bacterial Spores; 40 °C, 120 sec) | log reduction at 35 % (Bacterial Spores; 60 °C, 10 sec) | log reduction at 35 % (Bacterial Spores; 60 °C, 20 sec) | log reduction at 35 % (Bacterial Spores; 60 °C, 30 sec) | log reduction at 35 % (Bacterial Spores; 80 °C, 10 sec) | log reduction at 35 % (Bacterial Spores; 80 °C, 20 sec) | log reduction at 35 % (Bacterial Spores; 80 °C, 30 sec) | log reduction at 5 µg/mL (S. aureus; concentration of 5 ppm and pH of ∼5, Table 25, read-out: log reductions of Staphylococcus aureus) | log reduction at 11 µg/mL (S. aureus; pH 6.1, pH of 6.1, 11 ppm of peroxyoctanoic acid (POOA), Table 13 (composition K), read-out: reducing S. aureus)
OO [Composition H2O2, hydrogen peroxide] | 1.19 | 2.94 | > 6.3 | 1.59 | 4.85 | 4.89 | > 6.3 | > 6.3 | > 6.3 |  | 
CCCCCCCC(=O)OO [Pure POOA Crystals, peroxyoctanoic acid] |  |  |  |  |  |  |  |  |  | 5 | > 7.04
